The values that follow come from patent US7371555B2, “Polypeptides having α-H-α-amino acid amide racemase activity and nucleic acids encoding the same” (DSM IP Assets B.V., priority 2002, dated 2008).

The structures appear in SMILES notation.

Assay [1] has as its system disintegrated cells of Agrobacterium rhizogenes Bi. Nature of the assay: α-H-α-amino acid amide racemase activity test with disintegrated cells. It is filed as biochemical. The settings on record: incubation time 139 h; 0.79 w/w % D-leucine amide. On the procedure:
(§1) After growth of these three strains in Medium A containing 2 g/l of D-α-amino-ε-caprolactam, cells were harvested by centrifugation at 12,000×g. After centrifugation the supernatant was decanted and the wet weight of the pellet was measured. To the pellet, sonification buffer (NaCl, 16 g/l; KCl, 0.74 g/l; Na2HPO4, 0.27 g/l; glucose, 2 g/l; HEPES, 10 g/l, pH 7.0) was added in a 1:2 ratio (wet weight cell pellet:ml buffer). During storage between cell harvest and sonification the pellet was frozen in the sonification buffer at −86° C.
(§2) Sonification was performed with a Soniprep 150 of MSE at maximal amplitude of 20 microns in periods of 10 min. using time intervals of 10 sec. (i.e., 10 sec. sonification, 10 sec. cooling down), cooling the sample on ice/acetone. Each 10 min. the cells were viewed microscopically. The sonification procedure was stopped when >70% of the cells were broken.
(§3) 1 ml Of disintegrated cells of each of the three strains was incubated in a HEPES-NaOH buffer (20 mM) pH 7.7, to which pyridoxal-5-phosphate (0.01 mM) was added as a cofactor and D-leucine amide (60.8 mM) as a substrate in a total volume of 10 ml (0.79 w/w % D-leucine amide). After 0 and 139 hours 1 ml samples were taken (of which the exact weight was measured) and the reaction in these samples was stopped by adding 1 ml methanol (of which the exact weight was measured too; to be able to calculate dilution factors). Stopped reaction mixtures were centrifuged to remove particulates. The supernatants were frozen at −86° C. until HPLC analysis according to the method given in Example 1.

Assay [2] deals with disintegrated cells of Agrobacterium rhizogenes Na. The description is as above. The class given is biochemical. The conditions noted are these: incubation time 139 h; 0.79 w/w % D-leucine amide. On the procedure:
as §1, §2, §3

The subject of assay [3] is disintegrated cells of Arthrobacter nicotianae. The assay is described as above. The settings on record: incubation time 139 h; 0.79 w/w % D-leucine amide. The class given is biochemical. The procedure: as §1, §2, §3
The subject of assay [4] is E. coli clones with plasmid encoded A. nicotianae NCIMB 41126 α-H-α-amino acid amide racemase activity. Briefly: Confirmation of potential positive clones of the A. nicotianae NCIMB 41126 gene library. It is filed as cell-based, Arthrobacter nicotianae NCIMB 41126. The settings on record: 70 mM substrate, 10 μM pyridoxal-5-phosphate, 20 h at 30° C. On the procedure:
Of all 32 potential positive clones identified in the screening, material from the masterplates was used to inoculate 3 ml of liquid screening medium containing 50 mg/l kanamycin. After growth for 2 days at 30° C., cells were collected by centrifuging 2 ml of these cell cultures. Then the cell pellets were washed four times in 25 mM Tris-HCl buffer, pH 7.5. Subsequently, the cell pellets were resuspended in 100 μl substrate solution containing 70 mM of D-phenylalanine amide, or D-leucine amide, or D-valine amide in 50 mM Tris-HCl, pH 7.5 and 1 mM MnCl2. After incubation for 20 h at 30° C., the reactions were stopped by the addition of 100 μl of 0.15 M HCl, after which the reaction mixtures were analyzed by the HPLC method described in Example 1.
Confirmation of both potential positive clones was done according to the protocol given in Example 3, with the exception that all 3 substrate solutions used contained 10 μM of pyridoxal-5-phosphate.

Assay [5] concerns α-H-α-amino acid amide racemase from Ochrobactrum anthropi IA. Nature of the assay: Substrate specificity, CFE from E. coli TOP10/pKEC_AZAR_3 (Example 7). The settings on record: relative to the activity towards D-leucine amide; 75 mM substrate, 20 mM EDTA, pH 8.0, 37° C. It is filed as biochemical. On the procedure:
Two pre-cultures of E. coli TOP10/pKEC_AZAR—3 (see Example 4) were prepared by inoculation of 2 erlenmeyer flasks with 100 ml of 2*TY medium (10 g/l Yeast extract, 16 g/l Tryptone, 5 g/l NaCl) containing 50 mg/l of kanamycin with 10 μl of a glycerol stock per flask. After overnight cultivation at 28° C. and 200 rpm, the pre-cultures were pooled, and subsequently used to inoculate 2 erlenmeyer flasks each containing 1 l of the same medium. Also these flasks were cultivated at 28° C. and 200 rpm for 16-18 h. Cells were harvested by centrifugation (15 min. at 6,200×g, 4° C.), washed with 20 mM HEPES-NaOH, pH 7.5, pooled, weighed, and resuspended in a solution containing 20 mM HEPES-NaOH, pH 7.5, 20 μM pyridoxal-5-phosphate, and 1.3 mM of dithiothreitol in a 1:3 ratio of wet weight cells to solution. Then, cells were disintegrated by 10 min. sonification with a Soniprep 150 of MSE operated at maximum amplitude using time intervals of 10 sec. (i.e., 10 sec. sonification, 10 sec. cooling) and cooling in ice/acetone. Particles were removed by centrifugation, after which sucrose was added to the cell free extract to a final concentration of 0.25 M. The resulting cell free extract (CFE) was stored in aliquots at −20° C. E. coli TOP10/pBAD/Myc-HisC (Invitrogen) cells were treated in exactly the same way and served as negative control.
The substrate specificity of the α-H-α-amino acid racemase from O. anthropi IA was determined by measuring the racemase activity of the above-mentioned CFE towards a number of enantiomerically pure amino acid amides. Each reaction mixture of 10 ml (including the CFE) contained 50 mM HEPES-NaOH, pH 8.0, 20 μM pyridoxal-5-phosphate, 0.4 mg/ml BSA, 1 mM dithiothreitol, 20 mM EDTA and 75 mM of one of the amino acid amides tested. Reactions were started by the addition of 1 ml of the thawed CFE of E. coli TOP10/pKEC_AZAR—3 or E. coli TOP10/pBAD/Myc-HisC (blank) and were incubated at 37° C. At regular time intervals samples of 1 ml were taken and transferred to vials containing 1 ml of 1M H3PO4 to stop the reaction. After sufficient dilution of the samples in 0.4 M borate buffer pH 9.4, the mixtures obtained were analyzed using HPLC to determine the exact concentrations of the two amino acid and two amino acid amide enantiomers according to the following method.
The initial activity for the different substrates tested was calculated from the linear parts of the progress curves, in which the conversion was plotted against the reaction time. Use of the linear part of the progress curves secured that only samples taken at time points at which the substrate concentration was still sufficiently high, were used for the calculations. The conversion was calculated by dividing the amount of amino acid and amino acid amide formed via the racemase reaction (so with the opposite stereochemistry compared to the substrate molecule) by the total amount of two amino acid enantiomers and the two amino acid amide enantiomers.

For the compound `CC(C)C[C@@H](N)C(N)=O` [D-leucine amide], the values for the D-leucine in assay [1], in assay [2] and in assay [3] were 0.013 w/w %, 0.036 w/w % and 0.002 w/w %, respectively. The D-leucine amide in assay [1] amounted to 0.61 w/w %; in assay [2], 0.51 w/w %; in assay [3], 0.56 w/w %. The figures for the L-leucine in assay [1], in assay [2] and in assay [3] were 0.025 w/w %, 0.078 w/w % and 0.068 w/w %, respectively. In assay [4], the “conversion of D-amide into L-acid” value was “significantly converted”. In assay [5], this compound came in with a Rel. initial activity of 100%.
